Measured values as given in patent US12291519B2, “2-hydroxycycloalkane-1-carbamoyl” (Idorsia Pharmaceuticals Ltd, priority 2019, dated 2025).

How the values were obtained:
[1] = biological target: human Gal-3 (hGal-3) (Homo sapiens (Human), UniProt P17931); assay: Competitive binding assay: biotinylated hGal-3 binding to microplate-adsorbed asialofetuin (ASF); settings: Activity on hGal-3; binding of biotinylated hGal-3 to ASF-coated plates; mean values
Method in brief: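 Serially diluted compounds competed with biotinylated human Gal-3 for binding to plate-adsorbed asialofetuin over 3 h at 4 °C. Bound Gal-3 was detected with streptavidin-peroxidase (80 ng/mL, 1 h, 4 °C) and ABTS substrate. IC50 values are means of several measurements.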

[2] = biological target: human Gal-1 (hGal-1); assay: Competitive binding assay: biotinylated hGal-1 binding to microplate-adsorbed asialofetuin (ASF); settings: Activity on hGal-1; binding of biotinylated hGal-1 to ASF-coated plates; mean values
human Gal-1 (hGal-1), sequence (P09382 2-135 limits assumed): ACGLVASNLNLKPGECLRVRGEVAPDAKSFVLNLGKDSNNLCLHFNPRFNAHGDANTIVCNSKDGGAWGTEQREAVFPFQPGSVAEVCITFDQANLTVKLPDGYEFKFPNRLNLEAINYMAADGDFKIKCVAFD
Method in brief: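 Biotinylated hGal-1 (300–1000 ng/mL; optionally a cysteine-free all-serine variant) incubated 3 h at 4 °C with compound on asialofetuin-coated plates, then streptavidin-peroxidase 1 h at 4 °C. ABTS readout at OD 410 nm after 30–45 min; IC50 given as mean of several runs.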

human Gal-3 (hGal-3), sequence (P17931 whole entry): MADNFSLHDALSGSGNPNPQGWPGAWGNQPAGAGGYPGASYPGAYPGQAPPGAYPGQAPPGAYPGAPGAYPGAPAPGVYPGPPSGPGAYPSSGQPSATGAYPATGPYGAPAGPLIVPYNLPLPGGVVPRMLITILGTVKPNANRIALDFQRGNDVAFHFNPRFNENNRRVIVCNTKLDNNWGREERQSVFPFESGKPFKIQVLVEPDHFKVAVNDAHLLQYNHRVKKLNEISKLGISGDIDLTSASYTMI

| Compound | IC50 [1] [nM] | IC50 [2] [nM] |
| --- | --- | --- |
| Cc1ccc(-c2cn([C@H]3[C@@H](O)[C@@H](CO)O[C@@H](C(=O)N(c4cc(Cl)cc(C#N)c4)[C@H]4CCCC[C@@H]4O)[C@@H]3OCC(=O)N3CCOCC3)nn2)c(F)c1F [Example 173, (2R,3R,4S,5R,6R)-N-(3-chloro-5-cyanophenyl)-4-(4-(2,3-difluoro-4-methylphenyl)-1H-1,2,3-triazol-1-yl)-5-hydroxy-N-((1S,2S)-2-hydroxycyclohexyl)-6-(hydroxymethyl)-3-(2-morpholino-2-oxoethoxy)tetrahydro-2H-pyran-2-carboxamide] | 9 | 509 |
| CC(=O)O[C@@H]1[C@@H](n2cc(-c3cc(F)c(F)c(F)c3)nn2)[C@@H](O)[C@@H](CO)O[C@H]1C(=O)N(Cc1ccccc1C(F)(F)F)[C@H]1CCCC[C@@H]1O [Example 55, (2R,3R,4S,5R,6R)-5-hydroxy-2-(((1S,2S)-2-hydroxycyclohexyl)(2-(trifluoromethyl)benzyl)carbamoyl)-6-(hydroxymethyl)-4-(4-(3,4,5-trifluorophenyl)-1H-1,2,3-triazol-1-yl)tetrahydro-2H-pyran-3-yl acetate] | 31 | 828 |
| CO[C@@H]1[C@@H](n2cc(-c3cc(F)c(F)c(Cl)c3)nn2)[C@@H](O)[C@@H](CO)O[C@H]1C(=O)N(c1cc(Cl)cc(Cl)c1)[C@H]1CCCC[C@@H]1O [Example 129, (2R,3R,4S,5R,6R)-4-(4-(3-chloro-4,5-difluorophenyl)-1H-1,2,3-triazol-1-yl)-N-(3,5-dichlorophenyl)-5-hydroxy-N-((1S,2S)-2-hydroxycyclohexyl)-6-(hydroxymethyl)-3-methoxytetrahydro-2H-pyran-2-carboxamide] | 32 | 141 |
| Cc1ccc(-c2cn([C@H]3[C@@H](O)[C@@H](CO)O[C@@H](C(=O)N(c4cc(Cl)cc(C#N)c4)[C@H]4CCCC[C@@H]4O)[C@@H]3OCC(=O)O)nn2)c(F)c1F [Example 172, 2-(((2R,3R,4S,5R,6R)-2-((3-chloro-5-cyanophenyl)((1S,2S)-2-hydroxycyclohexyl)carbamoyl)-4-(4-(2,3-difluoro-4-methylphenyl)-1H-1,2,3-triazol-1-yl)-5-hydroxy-6-(hydroxymethyl)tetrahydro-2H-pyran-3-yl)oxy)acetic acid] | 11 | 421 |
| COc1cc(C#N)cc(N(C(=O)[C@@H]2O[C@H](CO)[C@H](O)[C@H](n3cc(-c4cc(F)cc(Br)c4)nn3)[C@H]2OC)[C@H]2CCCC[C@@H]2O)c1 [Example 150, (2R,3R,4S,5R,6R)-4-(4-(3-bromo-5-fluorophenyl)-1H-1,2,3-triazol-1-yl)-N-(3-cyano-5-methoxyphenyl)-5-hydroxy-N-((1S,2S)-2-hydroxycyclohexyl)-6-(hydroxymethyl)-3-methoxytetrahydro-2H-pyran-2-carboxamide] | 62 | 671 |
| CO[C@@H]1[C@@H](n2cc(-c3ccc(Cl)cc3)nn2)[C@@H](O)[C@@H](CO)O[C@H]1C(=O)N(c1cc(Cl)cc(C#N)c1)[C@H]1CCCC[C@@H]1O [Example 201, (2R,3R,4S,5R,6R)-N-(3-chloro-5-cyanophenyl)-4-(4-(4-chlorophenyl)-1H-1,2,3-triazol-1-yl)-5-hydroxy-N-((1S,2S)-2-hydroxycyclohexyl)-6-(hydroxymethyl)-3-methoxytetrahydro-2H-pyran-2-carboxamide] | 20 | 242 |
| O=C(O)CO[C@@H]1[C@@H](n2cc(-c3cc(F)c(F)c(F)c3)nn2)[C@@H](O)[C@@H](CO)O[C@H]1C(=O)N(c1cc(Cl)cc(Cl)c1)[C@H]1CCCC[C@@H]1O [Example 195, 2-(((2R,3R,4S,5R,6R)-2-((3,5-dichlorophenyl)((1S,2S)-2-hydroxycyclohexyl)carbamoyl)-5-hydroxy-6-(hydroxymethyl)-4-(4-(3,4,5-trifluorophenyl)-1H-1,2,3-triazol-1-yl)tetrahydro-2H-pyran-3-yl)oxy)acetic acid] | 9 | 96 |
| COc1cc(C#N)cc(N(C(=O)[C@@H]2O[C@H](CO)[C@H](O)[C@H](n3cc(-c4ccc(C#N)c(F)c4)nn3)[C@H]2OC)[C@H]2CCCC[C@@H]2O)c1 [Example 205, (2R,3R,4S,5R,6R)-4-(4-(4-cyano-3-fluorophenyl)-1H-1,2,3-triazol-1-yl)-N-(3-cyano-5-methoxyphenyl)-5-hydroxy-N-((1S,2S)-2-hydroxycyclohexyl)-6-(hydroxymethyl)-3-methoxytetrahydro-2H-pyran-2-carboxamide] | 87 | 1820 |
| CO[C@@H]1[C@@H](n2cc(-c3ccc(Br)c(F)c3F)nn2)[C@@H](O)[C@@H](CO)O[C@H]1C(=O)N(c1cc(Cl)cc(Cl)c1)[C@H]1CCCC[C@@H]1O [Example 177, (2R,3R,4S,5R,6R)-4-(4-(4-bromo-2,3-difluorophenyl)-1H-1,2,3-triazol-1-yl)-N-(3,5-dichlorophenyl)-5-hydroxy-N-((1S,2S)-2-hydroxycyclohexyl)-6-(hydroxymethyl)-3-methoxytetrahydro-2H-pyran-2-carboxamide] | 13 | 852 |
| O=C([C@@H]1O[C@H](CO)[C@H](O)[C@H](n2cc(-c3cc(F)c(F)c(F)c3)nn2)[C@H]1O)N(CCc1ccccc1)[C@H]1CCCC[C@@H]1O [Example 4, (2R,3R,4S,5R,6R)-3,5-dihydroxy-N-((1S,2S)-2-hydroxycyclohexyl)-6-(hydroxymethyl)-N-phenethyl-4-(4-(3,4,5-trifluorophenyl)-1H-1,2,3-triazol-1-yl)tetrahydro-2H-pyran-2-carboxamide] | 677 | > 100000 |
| COc1cccc(OC)c1CN(C(=O)[C@@H]1O[C@H](CO)[C@H](O)[C@H](n2cc(-c3cc(F)c(F)c(F)c3)nn2)[C@H]1OC)[C@H]1CCCC[C@@H]1O [Example 40, (2R,3R,4S,5R,6R)-N-(2,6-dimethoxybenzyl)-5-hydroxy-N-((1S,2S)-2-hydroxycyclohexyl)-6-(hydroxymethyl)-3-methoxy-4-(4-(3,4,5-trifluorophenyl)-1H-1,2,3-triazol-1-yl)tetrahydro-2H-pyran-2-carboxamide] | 199 | 4670 |

Now from value to compound:

| IC50 [1] [nM] | IC50 [2] [nM] | Compound |
| --- | --- | --- |
| 158 | 4220 | CO[C@@H]1[C@@H](n2cc(-c3cc(F)c(F)c(F)c3)nn2)[C@@H](O)[C@@H](CO)O[C@H]1C(=O)N(c1ccc(Cl)cc1)[C@H]1CCCC[C@@H]1O [Example 111, (2R,3R,4S,5R,6R)-N-(4-chlorophenyl)-5-hydroxy-N-((1S,2S)-2-hydroxycyclohexyl)-6-(hydroxymethyl)-3-methoxy-4-(4-(3,4,5-trifluorophenyl)-1H-1,2,3-triazol-1-yl)tetrahydro-2H-pyran-2-carboxamide] |
| 16 | 665 | CO[C@@H]1[C@@H](n2cc(-c3cc(F)c(F)c(F)c3)nn2)[C@@H](O)[C@@H](CO)O[C@H]1C(=O)N(c1cc(Cl)cc(Cl)c1)[C@H]1CCCC[C@@H]1O [Example 60] |
| 317 | 1200 | CO[C@@H]1[C@@H](n2cc(-c3cc(F)c(F)c(F)c3)nn2)[C@@H](O)[C@@H](CO)O[C@H]1C(=O)N(c1ccc2nc(Cl)sc2c1)[C@H]1CCCC[C@@H]1O [Example 107, (2R,3R,4S,5R,6R)-N-(2-chlorobenzo[d]thiazol-6-yl)-5-hydroxy-N-((1S,2S)-2-hydroxycyclohexyl)-6-(hydroxymethyl)-3-methoxy-4-(4-(3,4,5-trifluorophenyl)-1H-1,2,3-triazol-1-yl)tetrahydro-2H-pyran-2-carboxamide] |
| 11 | 2740 | CO[C@@H]1[C@@H](n2cc(-c3cc(F)c(F)c(F)c3)nn2)[C@@H](O)[C@@H](CO)O[C@H]1C(=O)N(c1ccccn1)[C@H]1CCCC[C@@H]1O [Example 194, (2R,3R,4S,5R,6R)-5-hydroxy-N-((1S,2S)-2-hydroxycyclohexyl)-6-(hydroxymethyl)-3-methoxy-N-(pyridin-2-yl)-4-(4-(3,4,5-trifluorophenyl)-1H-1,2,3-triazol-1-yl)tetrahydro-2H-pyran-2-carboxamide] |
| 14 | 403 | CO[C@@H]1[C@@H](n2cc(-c3cc(F)c(F)c(F)c3)nn2)[C@@H](O)[C@@H](CO)O[C@H]1C(=O)N(c1cc(Cl)cc(Br)c1)[C@H]1CCCC[C@@H]1O [Example 96, (2R,3R,4S,5R,6R)-N-(3-bromo-5-chlorophenyl)-5-hydroxy-N-((1S,2S)-2-hydroxycyclohexyl)-6-(hydroxymethyl)-3-methoxy-4-(4-(3,4,5-trifluorophenyl)-1H-1,2,3-triazol-1-yl)tetrahydro-2H-pyran-2-carboxamide] |
| 53 | 924 | CO[C@@H]1[C@@H](n2cc(-c3cc(F)c(F)c(Cl)c3)nn2)[C@@H](O)[C@@H](CO)O[C@H]1C(=O)N(c1ccc(F)c(F)c1)[C@H]1CCCC[C@@H]1O [Example 130, (2R,3R,4S,5R,6R)-4-(4-(3-chloro-4,5-difluorophenyl)-1H-1,2,3-triazol-1-yl)-N-(3,4-difluorophenyl)-5-hydroxy-N-((1S,2S)-2-hydroxycyclohexyl)-6-(hydroxymethyl)-3-methoxytetrahydro-2H-pyran-2-carboxamide] |
| 34 | 224 | CO[C@@H]1[C@@H](n2cc(-c3cc(F)c(F)c(Cl)c3)nn2)[C@@H](O)[C@@H](CO)O[C@H]1C(=O)N(c1ccc2ncsc2c1)[C@H]1CCCC[C@@H]1O [Example 131, (2R,3R,4S,5R,6R)-N-(benzo[d]thiazol-6-yl)-4-(4-(3-chloro-4,5-difluorophenyl)-1H-1,2,3-triazol-1-yl)-5-hydroxy-N-((1S,2S)-2-hydroxycyclohexyl)-6-(hydroxymethyl)-3-methoxytetrahydro-2H-pyran-2-carboxamide] |
